In one assay the target is T1, ATX (Homo sapiens, UniProt Q13822).
T1 construct: from tissue; host or cells: human plasma / serum
The assay is described as follows: Ex vivo human plasma assay (LPC to LPA, LC-MS/MS). Format: biochemical. To be noted: 37 °C, 3 h. On the procedure: First, 5 μL of each test compound solution (10 mM, 100% dimethyl sulfoxide) was diluted 100 times with 495 μL of methanol and then 3 μL of a diluted methanol solution (1% dimethyl sulfoxide) was added to a human or rat serum solution. Next, 12 μL of the test compound solution was mixed into 48 μL of 100% serum in order to make 5 concentrations, and each tube was placed in a constant temperature water bath at 37 °C for 15 min. Subsequently, 10 mg/mL 18: 1 LPC solution (50% ethanol) was diluted to 375 μg/mL with serum and 2 μL was dispensed into each tube to make 50 μL. Each tube was reacted in a constant temperature water bath at 37 °C for 3 h. Then, 100 μL of a 0.5 μM 17:0 LPA solution (Chloroform/Methanol/Water = 65/35/8) was added to the reaction tube. Reaction mixture was centrifuged at 14,000 rpm, at 4 °C for 10 min in a centrifuge. Thereafter, 100 μL of 50% methanol solution was first dissolved in a 96-well polypropylene plate (Agilent Technologies 5042-1385, Santa Clara, CA, USA), and then 50 μL of the supernatant was carefully transferred from the centrifuged tube to the plate. Then, it was covered with a well cap (Thermo 276011, Thermo Fisher Scientific Solutions LLC, Seoul, Korea) and analyzed by LC-MS/MS (Agilent 1260).

For the next assay, the target named is human ENPP2 (Homo sapiens, UniProt Q13822). Put plainly: In vitro bis-pNPP assay (ATX inhibitory activity). In kind it is biochemical. To be noted: for IC50: in vitro bis-pNPP assay, human ENPP2. The procedure:
We confirmed the ATX inhibitory activity of each compound using bis-pNPP assay. First, 50 μL of 60 mM Tris-HCl (pH 9.0) solution was poured into a 96-well plate and 10 μL of the test compound solution (10% dimethyl sulfoxide) was added. Subsequently, 20 μL of a 3.75 nM human ENPP2 solution (buffer: 50 mM Tris-HCl (pH 8.5), 5 mM CaCl2, 2.5 mM MgCl2, 0.002% Brij 35) and 20 μL of 25 mM bis-pNPP solution (buffer: 50 mM Tris-HCl (pH 9.0)) were added and mixed. Spectrophotometric measurement was carried out at 405 nm at intervals of 10 s while reacting under 37 °C for 10 min.

We go through three molecules from PMC6696049, “Pharmacophoric Site Identification and Inhibitor Design for Autotaxin” (Molecules, 2019).

Broadly, the IC50 is the concentration at which inhibition is half-maximal. As to `NS(=O)(=O)Nc1ccc(NC(=O)c2ccc3c(c2)CN(C(=O)OCc2cc(Cl)cc(Cl)c2)C3)cc1` [Compound 3, (3,5-dichlorophenyl)methyl 5-{[4-(sulfamoylamino)phenyl]carbamoyl}-2,3-dihydro-1H-isoindole-2-carboxylate], the figures for the IC50 at ATX and on human ENPP2 were 827 nM and 3.86 nM, respectively. On to `NS(=O)(=O)Nc1ccc(C(=O)Nc2ccc3c(c2)CN(C(=O)OCc2cc(Cl)cc(Cl)c2)C3)cc1` [Compound 4, (3,5-dichlorophenyl)methyl 5-[4-(sulfamoylamino)benzamido]-2,3-dihydro-1H-isoindole-2-carboxylate], for which, on human ENPP2, half-maximal inhibition (IC50) was put at 12.7 nM. Consider `NS(=O)(=O)Nc1ccc(C(=O)NC2CCN(C(=O)OCc3cc(Cl)cc(Cl)c3)CC2)cc1` [Compound 2, (3,5-dichlorophenyl)methyl 4-[4-(sulfamoylamino)benzamido]piperidine-1-carboxylate], for which the midpoint of inhibition against human ENPP2, the IC50, lay at 44.5 nM. The “potency relative to compound 1 in the bis-pNPP assay” value on human ENPP2 (ratio of bis-pNPP IC50 values, compound 2 vs compound 1) is “five-fold more potent”.
